Results on 16 molecules are retold here after patent US8685916B2, “Opioid prodrugs with heterocyclic linkers” (Signature Therapeutics, Inc., priority 2011, dated 2014).

By half-life is commonly meant the time needed for the level to fall by half in the phase considered.

Structures are written as SMILES.

Series [1] deals with T1, trypsin (Bos taurus, UniProt P00760).
T1 construct: purchased Sigma-Aldrich T8003; host or cells: bovine pancreas (tissue-derived preparation)
T1 sequence (P00760 24-246): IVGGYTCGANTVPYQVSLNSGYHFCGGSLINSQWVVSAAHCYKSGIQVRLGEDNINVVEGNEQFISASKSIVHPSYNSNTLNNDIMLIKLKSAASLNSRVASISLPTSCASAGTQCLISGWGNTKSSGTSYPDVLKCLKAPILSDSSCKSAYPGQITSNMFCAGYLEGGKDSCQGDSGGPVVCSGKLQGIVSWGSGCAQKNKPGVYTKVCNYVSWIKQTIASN
The experiment in a line: In vitro trypsin-mediated cleavage of hydrocodone prodrugs. It counts as biochemical, bovine. As to conditions: bovine, trypsin from bovine pancreas, pH 8; adjusted to 4815 BAEE U trypsin/mL; read-out: Prodrug trypsin half-life (converted). On the procedure: (§1) The reactions were conducted at 37° C. for 24 h.
(§2) Table 9 indicates the results of exposure of the tested prodrugs to trypsin.

A short description of series [2]: Pharmacokinetics of oxycodone prodrugs following PO administration to dogs. Particulars: oxycodone in dog plasma, 5.7-[…] (prodrugs 4.15-[…]; oxycodone 2 mg/kg; OxyContin 20 mg tablet).
Series [3] concerns the target T2, trypsin from bovine pancreas (Bos taurus, UniProt P00760).
T2 construct: purchased Sigma-Aldrich T8003; host or cells: bovine pancreas (tissue-derived preparation)
T2 sequence (P00760 24-246): T1 sequence (P00760 24-246)
Kind of series: In vitro trypsin-mediated cleavage of oxycodone prodrugs. It counts as biochemical. Particulars: 0.761 mM prodrug, Tris pH 8, 37° C. The method, then: as §1
(§3) Table 4 indicates the results of exposure of the tested prodrugs to trypsin. […] Table 4 also indicates the cyclization rate of the cyclizable spacer leaving group of Compound KC-9, Compound KC-11, and Compound KC-18. The results are expressed as half-life of compound disappearance. For Compound KC-11, a diastereomer, two peaks (A and B) were analyzed.

Series [4] concerns the target T1, trypsin. The series is described as above. In kind it is biochemical, bovine. As to conditions: bovine, trypsin from bovine pancreas; 0.761 mM prodrug, Tris pH 8, 37° C.; adjusted to 4815 BAEE U trypsin/mL. On the procedure: as §1, §3
Series [5] is described as follows: Pharmacokinetics following PO administration of ketone-modified oxycodone prodrugs to rats.
The target of series [6] is T2, trypsin from bovine pancreas. The experiment in a line: In vitro trypsin-mediated cleavage of hydrocodone prodrugs. It counts as biochemical. The method, then:
as §1, §2

The mark [7] stands for this setting: oxycodone in rat plasma, 28-34 μmol/kg (prodrugs 16-24 mg/kg; oxycodone 10 mg/kg).

In the case of `COc1ccc2c3c1O[C@H]1C(OC(=O)N4CC(C(=O)O)CCC4CNC(=O)[C@H](CCCNC(=N)N)NC(=O)CNC(C)=O)=CC[C@H]4[C@@H](C2)N(C)CC[C@]314` (mixture of isomers) [Compound KC-32, N-(hydrocodone-6-enol-carbonyl)-[(2-methylamino)piperidine-3-carboxylate]-L-arginine-glycine-acetate], the half-life at 0.761 mM in series [1] was 9 min.

On to `COc1ccc2c3c1O[C@H]1C(OC(=O)N(C)CCNC(=O)[C@H](CCCNC(=N)N)NC(=O)CC(=O)O)=CC[C@@]4(O)[C@@H](C2)N(C)CC[C@]314` [Compound KC-3, N-1-[2-(oxycodone-6-enol-carbonyl-methyl-amino)-ethylamine]-L-arginine-malonate], for which, in series [2], the “AUC ± sd” value came out at 65.6 ± 22 ng·h/mL and the “OC Cmax ± sd” value was determined as 10.2 ± 3.3 ng/mL.

Take `COc1ccc2c3c1O[C@H]1C(OC(=O)N4CCCC4CNC(=O)[C@H](CCCNC(=N)N)NC(=O)CC(=O)O)=CC[C@@]4(O)[C@@H](C2)N(C)CC[C@]314` (stereo partly drawn) [Compound KC-10, N-(oxycodone-6-enol-carbonyl)pyrrolidine-2-methylamine-L-arginine-malonate]: in series [3], the OC formation rate came to 0.00274 ± 0.00027 μmol/h/BAEE U. The half-life at 0.761 mM in series [4] was 9.01 ± 0.306 min.

Take `COc1ccc2c3c1O[C@H]1C(OC(=O)N4CCCCC4CN)=CC[C@@]4(O)[C@@H](C2)N(C)CC[C@]314` (stereo partly drawn) [Compound KC-11, N-(oxycodone-6-enol-carbonyl)piperidine-2-methylamine]: the “AUC ± sd” value in series [5] (oxycodone in rat plasma, 0 to 24 h, 28-34 μmol/kg (prodrugs 16-24 mg/kg; oxycodone 10 mg/kg)) worked out at 57.0 ± 9.0 ng·h/mL. In addition, in series [5] (setting [7]), the “OC Cmax ± sd” value turned out to be 13.6 ± 3.0 ng/mL and the “Tmax ± sd” value turned out to be 60 ± 0 min. Further, in series [5] (rats), the “release of oxycodone compared with Compound KC-9” value is “significantly more oxycodone than does Compound KC-9”.

For `COc1ccc2c3c1O[C@H]1C(OC(=O)N4CCCCC4CNC(=O)[C@H](CCCNC(=N)N)NC(=O)CC(=O)O)=CC[C@@]4(O)[C@@H](C2)N(C)CC[C@]314` (stereo partly drawn) [Compound KC-12, N-(oxycodone-6-enol-carbonyl)piperidine-2-methylamine-L-arginine-malonate], the OC formation rate in series [3] is 0.231 ± 0.0097 μmol/h/BAEE U. Also, the half-life at 0.761 mM in series [4] was 9.498 ± 0.0114 min.

As for `COc1ccc2c3c1O[C@H]1C(OC(=O)N4CCCCC4CNC(=O)[C@H](CCCNC(=N)N)NC(=O)[C@H](C)NC(C)=O)=CC[C@@]4(O)[C@@H](C2)N(C)CC[C@]314` (stereo partly drawn) [Compound KC-13, N-(oxycodone-6-enol-carbonyl)piperidine-2-methylamine-L-arginine-L-alanine-acetate], the OC formation rate in series [3] was determined as 47.1 ± 5.72 μmol/h/BAEE U. In series [4], the half-life at 0.761 mM is 0.0458 ± 0.00051 min.

On to `COc1ccc2c3c1O[C@H]1C(OC(=O)N4CCCCC4CNC(=O)[C@H](CCCNC(=N)N)NC(=O)CNC(C)=O)=CC[C@@]4(O)[C@@H](C2)N(C)CC[C@]314` (stereo partly drawn) [Compound KC-14, N-(oxycodone-6-enol-carbonyl)piperidine-2-methylamine-L-arginine-glycine-acetate], for which the OC formation rate in series [3] is 5.48 ± 0.1 μmol/h/BAEE U. Also, the half-life at 0.761 mM in series [4] was 0.5143 ± 0.00198 min.

Consider `COc1ccc2c3c1O[C@H]1C(OC(=O)N4CCCCC4CNC(=O)[C@H](CCCNC(=N)N)NC(=O)[C@H](C)NC(=O)CC(=O)O)=CC[C@@]4(O)[C@@H](C2)N(C)CC[C@]314` (stereo partly drawn) [Compound KC-15, N-(oxycodone-6-enol-carbonyl)piperidine-2-methylamine-L-arginine-L-alanine-malonate], for which the OC formation rate in series [3] turned out to be 22.3 ± 0.8 μmol/h/BAEE U. In series [4], the half-life at 0.761 mM is 0.173 ± 0.0114 min.

Regarding `COc1ccc2c3c1O[C@H]1C(OC(=O)N4CCCCC4CNC(=O)[C@H](CCCNC(=N)N)NC(=O)CNC(=O)CC(=O)O)=CC[C@@]4(O)[C@@H](C2)N(C)CC[C@]314` (stereo partly drawn) [Compound KC-16, N-(oxycodone-6-enol-carbonyl)piperidine-2-methylamine-L-arginine-glycine-malonate], in series [3], the OC formation rate is listed as 1.46 ± 0.093 μmol/h/BAEE U. The half-life at 0.761 mM in series [4] is 2.37 ± 0.162 min.

For `COc1ccc2c3c1O[C@H]1C(OC(=O)N4CCCC[C@@H]4CNC(=O)[C@H](CCCNC(=N)N)NC(=O)CNC(=O)CC(=O)O)=CC[C@@]4(O)[C@@H](C2)N(C)CC[C@]314` [Compound KC-17, N-(oxycodone-6-enol-carbonyl)-R-(piperidine-2-methylamine)-L-arginine-glycine-malonate], the OC formation rate in series [3] was determined as 1.23 ± 0.011 μmol/h/BAEE U. Also, the half-life at 0.761 mM in series [4] is 2.65 ± 0.117 min.

For the molecule `COc1ccc2c3c1O[C@H]1C(OC(=O)N4CCCC[C@@H]4CNC(=O)[C@H](CCCNC(=N)N)NC(=O)CNC(=O)CC(=O)O)=CC[C@H]4[C@@H](C2)N(C)CC[C@]314` [Compound KC-31, N-(hydrocodone-6-enol-carbonyl)-R-(piperidine-2-methylamine)-L-arginine-glycine-malonate], the half-life at 0.761 mM in series [1] was 3.9 min.

In the case of `COc1ccc2c3c1O[C@H]1C(OC(=O)N4CCCC[C@@H]4CNC(=O)[C@H](CCCNC(=N)N)NC(=O)[C@H](C)NC(=O)CC(=O)O)=CC[C@H]4[C@@H](C2)N(C)CC[C@]314` [Compound KC-35, N-(hydrocodone-6-enol-carbonyl)-R-(piperidine-2-methylamine)-L-arginine-L-alanine-malonate], the half-life at 0.761 mM in series [1] was 0.48 min.

`COc1ccc2c3c1O[C@H]1C(OC(=O)N4CCCC[C@@H]4CNC(=O)[C@H](CCCNC(=N)N)NC(=O)CNC(C)=O)=CC[C@H]4[C@@H](C2)N(C)CC[C@]314` [Compound KC-36, N-(hydrocodone-6-enol-carbonyl)-R-(piperidine-2-methylamine)-L-arginine-glycine-acetate]: in series [6], the HC formation rate was found to be 0.004 ± 0.00 μmol/h/BAEE U. Also, in series [1], the half-life at 0.761 mM is 1.08 min.

Consider `COc1ccc2c3c1O[C@H]1C(OC(=O)N4CCCC[C@@H]4CNC(=O)[C@H](CCCNC(=N)N)NC(=O)[C@H](C)NC(C)=O)=CC[C@H]4[C@@H](C2)N(C)CC[C@]314` [Compound KC-37, N-(hydrocodone-6-enol-carbonyl)-R-(piperidine-2-methylamine)-L-arginine -L-alanine-acetate], for which the HC formation rate in series [6] is recorded as 0.004 ± 0.00 μmol/h/BAEE U.

In the case of `COc1ccc2c3c1O[C@H]1C(OC(=O)N4CCCC[C@@H]4CNC(=O)[C@H](CCCNC(=N)N)NC(C)=O)=CC[C@H]4[C@@H](C2)N(C)CC[C@]314` [Compound KC-38, N-(hydrocodone-6-enol-carbonyl)-R-(piperidine-2-methylamine)-L-arginine-acetate], the HC formation rate in series [6] was 0.001 ± 0.00 μmol/h/BAEE U. The half-life at 0.761 mM in series [1] is 7.2 ± 0.6 min.

As for `COc1ccc2c3c1O[C@H]1C(OC(=O)N4CCCC[C@@H]4CNC(=O)[C@H](CCCNC(=N)N)NC(=O)CC(=O)O)=CC[C@H]4[C@@H](C2)N(C)CC[C@]314` [Compound KC-39, N-(hydrocodone-6-enol-carbonyl)-R-(piperidine-2-methylamine)-L-arginine-malonate], the HC formation rate in series [6] amounted to 0.00 ± 0.00 μmol/h/BAEE U. Further, the half-life at 0.761 mM in series [1] is 23.9 min.
